Source: patent US20020025337A1, “LIPID VEHICLE DRUG DELIVERY COMPOSITION CONTAINING VITAMIN E” (priority 1995, published 2002)
Values after ≈ are worked out from the molar mass of the structure shown.

Test: physchem
Conditions: for solubility / solubility at 18 h: 25 °C
Protocol: To measure the SVE of a drug, saturated solutions of the drug are prepared in methanol and chloroform. An appropriate means of preparing a saturated solution is to suspend approximately 60 mg of drug in 3 ml of the solvent and stir for 24 hours at room temperature. If all of the drug dissolves during this time, further 10 mg aliquots should be added until a suspension is again formed. After 24 hours, the suspension are centrifuged or filtered to separate drug in solution from undissolved particulate drug. The drug solutions are assayed for drug content by an appropriate means, eg. high performance liquid chromatography, and the saturated solubility calculated. The SVE is calculated by dividing the solubility in chloroform by the solubility in methanol and expressed as weight in volume (w/v).
Into each of two 10 ml bottles was weighed 60 mg of itraconazole. To one bottle was added 3 ml of chloroform. […] Further itraconazole was added in 100 mg aliquots until a suspension was formed. […] To the other bottle was added 3 ml of methanol. A magnetic stirrer bar was added to each bottle and the contents were left to stir on a magnetic stirrer. After being left overnight to stir (18 hours), the contents of each bottle were filtered through a 0.1 μm PTFE filter (Whatman). […] To assay the methanol filtrate for itraconazole content, 1 ml was diluted to 5 ml with the same diluent used for the chloroform analysis. Both samples were assayed for itraconazole content using reverse-phase high performance liquid chromatography.

[1] = oil or lipid, Solubility (mg/ml) Vitamin E
[2] = organic solvent or mixture, thermodynamic from solid, Solubility (mg/ml) Chloroform
[3] = organic solvent or mixture, thermodynamic from solid, Solubility (mg/ml) Methanol

| Structure (SMILES) | Solubility (mg/ml) Water | solubility [1] | solubility [2] | solubility [3] | also measured |
| --- | --- | --- | --- | --- | --- |
| C[C@@H]1[C@H](O)[C@@H](C)/C=C/C=C/C=C/C=C/C=C/C=C/C=C/[C@H](O[C@@H]2O[C@H](C)[C@@H](O)[C@H](N)[C@@H]2O)C[C@@H]2O[C@](O)(C[C@@H](O)C[C@@H](O)[C@H](O)CC[C@@H](O)C[C@@H](O)CC(=O)O[C@H]1C)C[C@H](O)[C@H]2C(=O)O [Amphotericin] | insol. | – | – | – | Solubility (mg/ml) Chloroform: insol.; Solubility (mg/ml) Vitamin E: insol. |
| CC(C)CCC[C@@H](C)[C@H]1CC[C@H]2[C@@H]3CC=C4C[C@@H](O)CC[C@]4(C)[C@H]3CC[C@]12C [Cholesterol] | insol. | 150 mg/mL (≈ 388 mM) | 200 mg/mL (≈ 517 mM) | 5 mg/mL (≈ 12.9 mM) | – |
| CC(C)[C@@H](C)/C=C/[C@@H](C)[C@H]1CC[C@H]2C3=CC=C4C[C@@H](O)CC[C@]4(C)[C@H]3CC[C@]12C [Ergosterol] | insol. | 50 mg/mL (≈ 126 mM) | 32 mg/mL (≈ 80.7 mM) | 1.5 mg/mL (≈ 3.78 mM) | – |
| CCC(C)n1ncn(-c2ccc(N3CCN(c4ccc(OCC5COC(Cn6cncn6)(c6ccc(Cl)cc6Cl)O5)cc4)CC3)cc2)c1=O (centres unmarked) [Itraconazole] | insol | 60 mg/mL (≈ 85 mM) | 500 mg/mL (≈ 709 mM) | – | solubility (oil or lipid, solubility of the drug in vegetable oils): ≤ 0.4 mg/mL; solubility at 18 h (organic solvent or mixture, thermodynamic from solid, solubility of itraconazole in chloroform): 350 mg/mL (≈ 496 mM); solubility at 18 h (organic solvent or mixture, thermodynamic from solid, solubility of itraconazole in methanol): 0.7 mg/mL (≈ 0.992 mM); SVE value (18 h): 500 |
| C[C@]12C=CC(=O)C=C1CC[C@@H]1[C@@H]2[C@@H](O)C[C@@]2(C)[C@H]1CC[C@]2(O)C(=O)CO [Prednisolone] | – | – | – | – | solubility (organic solvent or mixture, thermodynamic from solid, Solubility (mg/ml) Methanol, methanol, room temperature (25° C.)): 33 mg/mL (≈ 91.6 mM) |
| CC(=O)O[C@H]1C(=O)[C@@]2(C)[C@H]([C@H](OC(=O)c3ccccc3)[C@]3(O)C[C@H](OC(=O)[C@H](O)[C@@H](NC(=O)c4ccccc4)c4ccccc4)C(C)=C1C3(C)C)[C@]1(OC(C)=O)CO[C@@H]1C[C@@H]2O [Taxol] | insol | – | – | – | – |
